Reference: US20150273076A1, “SP1 POLYPEPTIDES, MODIFIED SP1 POLYPEPTIDES AND USES THEREOF” (Fulcrum SP Ltd., priority 2006, published 2015)

Experiments:
[1] = Doxorubicin complex formation and release (ultrafiltration, HPLC, SDS PAGE fluorescence); assay type: binding; settings: reducing conditions (DTT or GSH)
Method: Pure wild type SP1 or Cys2 SP1 mutant (1.5 mg/ml in 20 mM Sodium Phosphate buffered, pH=6.8) were incubated overnight at room temp, with DOX 1 mg/ml in the presence of DTT (10 mM), with gentle rolling. Binding reaction was stopped by adding hydrogen peroxide (0.01%), followed by ultra filtration (using 30 kD cutoff filter) and extensive wash until follow-through become colorless. Optical density was measured at both 278 and 477 nm using nanodrop spectrophotometer. Note the dramatic effect of the reducing agent on drug binding by the Cys2 SP1, compared to the absence of effect on the wild type SP1.
FIG. 13 is a histogram illustrating the redox-dependent release of Doxorubicin by Cys2 SP1. Doxorubicin (DOX) was complexed within Cys2 SP1 as described in FIGS. 9-12 above. Release of the drug in the presence of 0, 2 and 20 mM GSH was measured by ultrafiltration and size exclusion HPLC analysis (detection at 228 and 475 nm);
FIG. 14 is a histogram illustrating the effect of oxidation on DOX complex formation by Cys2 SP1. Doxorubicin (DOX) was reacted with Cys2 SP1 and wild type SP1 as described in FIGS. 9-13 above. Oxidized protein indicates exposure to excess of H2O2 prior to treatment with GSH. DOX complex formation was measured by ultrafiltration and size exclusion HPLC analysis (detection at 228 and 475 nm). […] 1=the retentate; 2=the flow through; and 3=a DOX standard 20 μg/ml.
FIG. 17 is a photograph of a fluorescent PAGE analysis illustrating effective complex formation with DOX by Cys2 and SP1 fusion proteins. Recombinant wild type (lanes 1 and 2), Cys2 (lanes 3 and 4), and SP1 fusion proteins having additional N-terminal tumor specific peptide RGD (CRGD, SEQ ID NO:151; fusion protein is SEQ ID NO: 5)(lanes 5 and 6), or RGD in reverse order (RGDC, SEQ ID NO: 152; fusion protein is SEQ ID NO: 6)(lanes 7 and 8) were reacted with DOX to form complex as described in FIGS. 9-14 above, and then separated on SDS-PAGE with (lanes 2, 4, 6 and 8) or without (lanes 1, 3, 5 and 7) denaturation by boiling in LSB.
Ultrafiltration was used for the detection of complex formation with the water soluble ligands FA and DOX which have a distinctive absorption properties and can be determined by spectroscopic measurements. […] Several additional washing cycles remove all remaining free FA and DOX, and the ligand-SP1 complex remains in the retained fraction.
Size exclusion chromatography is a common method for separation of molecules of different sizes under mild conditions and was employed to test FA and DOX complex formation under mild conditions. SP1 is eluted from the column after 7 min and is detected at 278 nm only, and free FA is eluted from the column (TSK G3000 SWXL, Tosohaas) after 16 min and is detected at 490 nm. The SP1-FA and SP1-DOX complexes also eluted at the same time but is detected also at 490 and 475 nm, respectively. DOX/SP1 ratio is determine from the standard curve obtained in solution.
Reverse phase HPLC (RP-HPLC) analysis separates between free DOX, PXT, and SP1. Both compounds bind to the resin (C-18) and are eluted at different acetonitrile concentrations, and detected at both 278 and 225 nm (SP1), 225 nm (PTX) and 477 nm (DOX).
Pyrogen free Cys2 SP1 variant (SEQ ID NO:3) in 20 mM (Na Phosphate buffer pH-6.7) final 2 mg/ml was diluted with DOX solution (Teva, Israel) 1:2 dilution final 1 mg/ml. Where indicated, GSH was added, and the solution is mixed overnight. Where indicated (oxidized), H2O2 is added to 0.1%, buffer added to 3× volume, and the solution is sonicated (3×22 sec. 1:1 pulse/pause at 3% amplitude 0.5 min. pause, using a Vibra-Cell 750 W sonicator).

[2] = Resistance of SP1 complex to organic solvents; assay type: physicochemical
Method: 150 ul of 1 mg/ml samples in 10 mM sodium phosphate pH 7 were lyophilized overnight and resuspended in 150 μl organic solvents for 10 minutes. Following a 30 minutes speed vac the samples were resuspended in 150 μl water and analyzed by SDS-PAGE.
In order to further test the stability of SP1 and SP1 oligomeric complexes, wild type SP1 and the SP1 variant Cys2 SP1 were dissolved in buffer, exposed to organic solvents methanol and hexane, and analyzed by SDS-PAGE (FIG. 18).
In order to determine the stability of the SP1 complex in organic solvents, SP1 and Cys2 SP1-variant (SEQ ID NO: 3) were dissolved in organic solvents, dried, reconstituted with aqueous solvent, and separated on SDS-PAGE.

[3] = system: Human colon adenocarcinoma (HT-29) cells; experiment: In-vitro cytotoxicity in HT-29 cells; assay type: cell-based; settings: HT-29 cells, dose inhibiting 50% of cell growth
Text: FIGS. 24a and 24b are graphs illustrating the in-vitro cytotoxic effects of SP1-DOX complex. FIG. 24a—HT-29 cells cultured in 96 well microtiter plates were exposed to uncomplexed DOX (closed oval, magenta) or SP1-DOX complex (closed triangle, blue) prepared as described in FIGS. 9-15, at the indicated concentrations. FIG. 24b—HT-29 cells were exposed to uncomplexed SP1 (without DOX) (closed diamond, blue) or SP1-DOX complex (closed triangle, yellow) at indicated concentrations. Proportion of living cells was determined by MTT assay, and the IC50 was calculated.
HT-29 cells were prepared as in FIG. 24 above.
Human colon adenocarcinoma (HT-29) cells. The cells were grown in 50-ml flasks containing DMEM medium (Biological Industries, Bet Haemek), supplemented with 10% fetal calf serum, 1% glutamine and 1% Antibiotic-Antimicotic solution (Biolab, Israel). The cells were trypsinizated, and 2 ml medium containing 5×10^4 cells were plated in each well of a 6-wells plate. SP1, drugs or SP1-complexed with drugs was added at the indicated concentrations. The cells were incubated at 37° C. in a humidified atmosphere containing 5% CO2.After 48 hours the medium in the presence or absence of drugs was replaced in each well respectively, to maintain a constant supply of ingredients and drugs. After four days the medium was removed and the number of viable cells in the cultures was determined by spectroscopy.
The human colorectal adenocarcinoma cell line, HT-29, was used to evaluate the biological activity of the SP1-DOX complex, compared to that of the free drug and un-complexed SP1 protein. […] Thus, the SP1-DOX complex is at least as biologically active as free DOX.

[4] = Immunogenicity: anti SP1 antibody production by ELISA; assay type: in vivo, C57B1 mice; settings: after repetitive injections
Text: In order to determine the degree of immunogenicity of SP1, anti SP1 antibody production in both PBS- and SP1-treated animals was detected using ELISA, using either directly immobilized SP1 or rabbit anti SP1 antibodies (second antibody was HRP conjugated anti mouse IgG). Serum obtained from both PBS- and SP1-treated animals had negligible anti-SP1 antibody reaction, with no difference between the two groups.

With “wild type: stress related SP1 protein from aspen (Populus tremula), recombinant, SEQ ID NO:1” the DOX complex formation [1] was “much lower extent”, the DOX complex formation ([1]; listed as wild type SP1) was “no complexes are formed” and the “protease resistance after hexane treatment” value ([2]; hexane-treated, data not shown) was “resistance to protease treatment”. The “resistance of oligomeric complex to organic solvents” value ([2]; methanol, hexane, SDS-PAGE) was “Predominantly high molecular weight oligomer complex form”, the IC50 ([3]; listed as SP1) was “inactive” and the IC50 ([3]; listed as SP-1) was “absence of cytotoxicity”. For the same substance, the “anti-SP1 antibody reaction in serum” value [4] was “negligible”.
